Test results reported in paper PMC9066070, “RGI‐GOLVEN signaling promotes cell surface immune receptor abundance to regulate plant immunity” (EMBO Reports, 2022).
Entries after “also recorded” stand apart in the source; their conditions may differ. Non-standard residues stand in square brackets, D forms with d. Residues, ends and D or L forms follow the SMILES beside them. No end group written: not given here. *: point of attachment. SO3H = sulfated tyrosine (TyrSO3H2), O=S(=O)(O)*; Hyp = O=C(O)[C@@H]1C[C@@H](O)CN1; Cbz = O=C(OCc1ccccc1)*

Tests used:
FLS2 transcription = test system: FLS2 transcription; parameters: method as in Flury et al, 2013; Tintor et al, 2013; Hou et al, 2014; settings: ref Flury et al, 2013, Tintor et al, Hou et al, 2014; cited from earlier work
PRR-BAK1 complex = settings: ref Stegmann et al, 2017; cited from earlier work
Source text: FER controls FLS2-BAK1 and EFR-BAK1 complex formation independent of protein accumulation ([…] et al, [2017]). In contrast to GLV2 treatment, the FER ligand RALF23 inhibits PRR-BAK1 complex formation. […] Whether GLV2's promotion of PRR complex formation and the regulation of PRR ...

26S proteasome = assay: FLS2 accumulation in rgi5x after MG132 treatment, western blot; type: in vivo, Arabidopsis thaliana; settings: rgi5x seedlings, 50 μM MG132, 1 h
Procedure: Figure 6 GLV2 perception by RGIs promotes maximal FLS2 abundance independent of transcription • Twelve‐day‐old WT or 35S::GLV2 8‐5 seedlings were treated with mock or 1 μM GLV2 for 24 h before protein extraction. Western blots were probed with α‐FLS2 or α‐BAK1 antibodies. CBB: Coomassie brilliant blue. • Quantitative real‐time PCR of FLS2 transcripts from 12‐day‐old seedlings treated with mock or 1 μM GLV2 for the indicated time, n = 3 biological replicates. UBQ was used as a house keeping gene. […] Western blot was probed with α‐FLS2 antibodies. • Protein extraction was performed from 12‐day‐old seedlings after 1 h treatment with mock or 50 μM MG132. Western blots were probed with α‐FLS2 antibodies. Data information: Similar results were obtained in three independent experiments. Source data are available online for this figure.

[1] = biological target: T1, ectodomain of RGI3 with C-terminal Strep II-9x His tag (RGI3^ECD-Strep II-9x His) (Arabidopsis thaliana, UniProt C0LGR3 25-703, fluorescent dye by Monolith Protein Labeling Kit RED-tris-NTA Second Generation (His-tag reactive)); settings: both partners purified
T1 construct: It was cloned into the baculovirus transfer vector pMeIBac B1 for secreted expression; not shown: Strep II-9x His, C-terminal, kept
T1 sequence (looked up): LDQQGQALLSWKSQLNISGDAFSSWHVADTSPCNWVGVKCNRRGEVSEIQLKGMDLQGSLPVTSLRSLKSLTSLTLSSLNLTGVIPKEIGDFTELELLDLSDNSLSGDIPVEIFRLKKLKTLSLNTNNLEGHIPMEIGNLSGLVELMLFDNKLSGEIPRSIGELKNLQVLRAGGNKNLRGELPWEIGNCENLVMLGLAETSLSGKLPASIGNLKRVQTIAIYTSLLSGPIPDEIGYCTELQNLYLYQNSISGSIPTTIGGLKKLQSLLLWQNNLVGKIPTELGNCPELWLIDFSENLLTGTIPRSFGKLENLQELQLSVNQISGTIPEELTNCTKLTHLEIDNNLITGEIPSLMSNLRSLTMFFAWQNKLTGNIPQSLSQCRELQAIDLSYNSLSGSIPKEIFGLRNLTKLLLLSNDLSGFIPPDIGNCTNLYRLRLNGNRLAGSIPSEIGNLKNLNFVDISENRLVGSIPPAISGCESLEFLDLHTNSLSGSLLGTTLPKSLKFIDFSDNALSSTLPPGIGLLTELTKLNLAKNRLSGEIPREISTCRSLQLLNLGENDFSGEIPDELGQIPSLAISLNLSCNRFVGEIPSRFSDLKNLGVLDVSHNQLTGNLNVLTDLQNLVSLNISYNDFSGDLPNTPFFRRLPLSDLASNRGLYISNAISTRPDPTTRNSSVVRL

PIP1: PATHOGEN-ASSOCIATED MOLECULAR PATTERN (PAMP)-INDUCED PEPTIDE perceived by RLK7 (GRVLTEKSGDGSATMTVEKMKSTVDSWFQRLASGPSPRGRGH; PAMP-induced secreted peptide 1; UniProt Q1PE40 31-72, looked up)
FLS2 transcription (FLS2 transcription): upregulation of FLS2 transcription

RALF23: FER ligand; RAPID ALKALINIZATION FACTOR peptide (ATRRYISYGALRRNTIPCSRRGASYYNCRRGAQANPYSRGCSAITRCRRS; Protein RALF-like 23; UniProt Q9LUS7 89-138, looked up)
PRR-BAK1 complex formation (PRR-BAK1 complex): inhibits PRR‐BAK1 complex formation

CC(C)C[C@@H](C=O)NC(=O)[C@H](CC(C)C)NC(=O)[C@H](CC(C)C)NC(=O)OCc1ccccc1 [MG132] (Cbz-Leu-Leu-Leu-aldehyde)
FLS2 accumulation defect of rgi5x (26S proteasome): partial restoration; also recorded: partially rescued

B1: GLV2 peptide without sulfated tyrosine (GLV2^-S) (peptide)
peptide: DMDYNSANKKRPIHN
modifications: without sulfated tyrosine
notes: mature GLV2 peptide cut from the GLV2 precursor, Arabidopsis thaliana, tyrosine not sulfated; also called GLV^-S; source: synthetic peptide (Pepmic, Suzhou, China; purity minimum 90%)
Kd [1]: 0.129 µM

B2: GOLVEN2 (GLV2) peptide, tyrosine-sulfated (peptide)
peptide: DMDY(SO3H)NSANKKR[Hyp]IHN
notes: mature GLV2 peptide cut from the GLV2 precursor, Arabidopsis thaliana; also called synthetic GLV2; source: synthetic peptide (Pepmic, Suzhou, China; purity minimum 90%)
Kd [1]: 0.0118 µM
